Source: publication PMC10959927, “Platinum iodido drugs show potential anti-tumor activity, affecting cancer cell metabolism and inducing ROS and senescence in gastrointestinal cancer cells” (Communications Biology, 2024)
Where “and” joins values, the source holds several entries; their conditions need not be identical. Identical values can stand only once. Like-named read-outs stand apart in the source and are kept apart here.

Columns and labels:
AGS cells [1] = assay: Cell viability, crystal violet staining; settings: for Cell Viability without NAC: AGS cells, Fig. S6A; for IC50: read-out: IC50 concentration (± SD) at 48 h, 48 h
Protocol: (§1) Cell viability was assessed using a crystal violet-based staining method. […] The cells (2 × 10^5) were seeded in 24-multiwell dishes in 0.5 mL of complete medium and incubated overnight. […] After 48 h, cells were fixed with 1% glutaraldehyde (20–30 min), washed with distilled water, and stained with 0.1% crystal violet. […] IC50 were calculated by using GraphPad Prism (version 8.0). Nonlinear regression was used to fit the data to the log (inhibitor) versus response (variable slope).

MKN45 cells [2] = assay: Cell viability, crystal violet staining; settings: for Cell Viability without NAC: MKN45 cells, Fig. S6A; for IC50: read-out: IC50 concentration (± SD) at 48 h, 48 h
Protocol: as §1

PANC1 cells [3] = assay: Cell viability, crystal violet staining; settings: for Cell Viability without NAC: PANC1 cells, Fig. S6A; for IC50: read-out: IC50 concentration (± SD) at 48 h, 48 h
Protocol: as §1

AGS cells [4] = assay: RT-qPCR gene expression (CDKN1A, IL6, MMP1, MAP2K3, SOD1, SOD2, CAT, MKI67, TNFRSF10D); type: cell-based, human
Protocol: (§2) Total cellular RNA was extracted using Tri-Reagent (Life Technologies), following the manufacturer’s instructions. One μg of total RNA was primed with random primers and cDNA synthesized with an M-MLV reverse transcriptase following the manufacturer’s instructions (Promega). Target genes were amplified using a SYBR Green polymerase chain reaction assay, working with the specific primer sets listed in Table 4.
(§3) Thermal cycling of the qPCR reaction was initiated with a denaturation step at 95 °C for 10 min. The process consisted of 40 cycles (denaturation at 95 °C for 15 sec, annealing at 60 °C for 30 sec, and elongation at 75 °C for 30 sec). PCR amplifications were carried out in a StepOne Real‐time PCR System (Applied Biosystems, 4376357). Relative mRNA levels were calculated by the delta-Ct method (2-ΔΔCt), where each 1-Ct difference equals a two-fold change in transcript abundance, using GAPDH as an endogenous gene reference. ΔΔCT represents the difference between the mean ΔCT value of the cells tested and the mean ΔCT value of the calibrator, both calculated for the same PCR run.

MKN45 cells [5] = assay: as above; type: cell-based, human
Protocol: as §2, §3

PANC1 cells [6] = assay: as above; type: cell-based, human
Protocol: as §2, §3

AGS cells [7] = assay: Ratio GSH/GSSG, colorimetric kit; type: cell-based, human
Protocol: (§4) GSH and GSSG levels were determined in AGS and PANC1 cells after 3 and 24 h of treatment with the compounds (using H2O2 as a positive control) with the Glutathione Colorimetric Detection Kit (ThermoFisher) following the manufacturer’s instructions. Thirty minutes after adding the Colorimetric Detection Reagent and the Reaction Mixture, the absorbance was read at 405 nm. A standard curve was generated with each assay to interpolate the sample results. To measure GSSG, standards and samples must be diluted with the Sample Diluent containing 2-vinylpyridine.

PANC1 cells [8] = assay: Ratio GSH/GSSG, colorimetric kit; type: cell-based, human
Protocol: as §4

PANC1 cells [9] = assay: Clonogenic (CFU) assay after 1, 3, 24 h pre-treatment; type: cell-based, human
Protocol: For the clonogenic assay we used two different approaches. […] Then, cells were cultured in a 6-well plate at a very low concentration (2 × 10^3 cells per well) and incubated for 10 days. […] To evaluate the role of ROS in cell proliferation, we supplemented the growth medium with 0.5 mM NAC. After 10 days, the cells were fixed with 1% glutaraldehyde and stained with 0.1% crystal violet. The number of colonies was quantified directly and reflected as CFUs: Colony Forming Units.

[10] = MKN45, Fig. 3C, replicate values
[11] = PANC1, Fig. 3C, replicate values

For `CC(C)[NH][Pt@SP3]([I])([I])[NH]C(C)C` [I5, trans-[PtI2(isopropylamine)2]], the IC25 concentration (AGS cells [1]; AGS) was 15 µM, the “Cell Viability without NAC” value (AGS cells [1]; dose 10 µM) was 104.459 and the “Cell Viability without NAC” value (AGS cells [1]; dose 50 µM) was 35.6312. The “Cell Viability without NAC” value (AGS cells [1]; dose 75 µM) was 33.3189, the IC50 (AGS cells [1]; AGS, NAC (+) 0.5 mM) was over 100 µM and the IC50 (AGS cells [1]; AGS, NAC (-)) was 40 µM and 38.2 µM. For the same compound, the “Cell Viability without NAC” value (MKN45 cells [2]; dose 10 µM) was 97.9702 and 91.0232 and 100.944, the “Cell Viability without NAC” value (MKN45 cells [2]; dose 25 µM) was 85.8879 and 70.3076 and 69.3928 and the “Cell Viability without NAC” value (MKN45 cells [2]; dose 50 µM) was 44.0762 and 29.818 and 39.7772. For the same compound, the “Cell Viability without NAC” value (MKN45 cells [2]; dose 75 µM) was 32.4358 and 27.3279 and 29.4931, the IC50 (MKN45 cells [2]; MKN45, NAC (+) 0.5 mM) was over 100 µM and the IC50 (MKN45 cells [2]; MKN45, NAC (-)) was 30 µM and 28.7 µM. For the same compound, the “Cell Viability without NAC” value (PANC1 cells [3]; dose 10 µM) was 85.9915 and 83.1095 and 92.9481, the “Cell Viability without NAC” value (PANC1 cells [3]; dose 25 µM) was 34.4587 and 38.5831 and 38.2547 and the “Cell Viability without NAC” value (PANC1 cells [3]; dose 50 µM) was 18.5972 and 30.025 and 31.7453. For the same compound, the “Cell Viability without NAC” value (PANC1 cells [3]; dose 75 µM) was 17.1129 and 21.5975 and 27.2406, the IC50 (PANC1 cells [3]; PANC1, NAC (+) 0.5 mM) was over 100 µM and the IC50 (PANC1 cells [3]; PANC1, NAC (-)) was 18 µM and 20 µM and 18.2 µM. The “CDKN1A, Fold change vs GAPDH” value (AGS cells [4]; Fig. 3C, replicate values) was 3.618 fold change and 2.316 fold change and 5.653 fold change, the “IL-6, Fold change vs GAPDH” value (AGS cells [4]; Fig. 3C, replicate values) was 2.065 fold change and 3.223 fold change and 3.287 fold change and the “MMP-1, Fold change vs GAPDH” value (AGS cells [4]; Fig. 3C, replicate values) was 226.834 fold change and 185.054 fold change and 278.046 fold change. The “Fold change MAP2K3 vs GAPDH” value (AGS cells [4]; Fig. 4B, replicate values) was 4.889 fold change and 4.056 fold change and 5.8931 fold change, the “MKI67 Fold change vs GAPDH” value (AGS cells [4]; Fig. S4C) was 0.1267 fold change and 0.1149 fold change and 0.1396 fold change and the “TNFRSF10D Fold change vs GAPDH” value (AGS cells [4]; Fig. S4C) was 23.1799 fold change and 20.8545 fold change and 25.7647 fold change. For the same compound, the “CAT (Fold change vs GAPDH)” value (AGS cells [4]; mRNA vs Control = 1) was 0.8688 Fold change and 0.7906 Fold change and 0.9547 Fold change, the “SOD1 (Fold change vs GAPDH)” value (AGS cells [4]; mRNA vs Control = 1) was 1.921 Fold change and 1.645 Fold change and 2.244 Fold change and the “SOD2 (Fold change vs GAPDH)” value (AGS cells [4]; mRNA vs Control = 1) was 1.44 Fold change and 1.254 Fold change and 1.654 Fold change. For the same compound, the “MKI67 Fold change vs GAPDH” value (MKN45 cells [5]; MKN45, Fig. S4C) was 0.1536 fold change and 0.123 fold change and 0.1918 fold change, the “TNFRSF10D Fold change vs GAPDH” value (MKN45 cells [5]; MKN45, Fig. S4C) was 1.273 fold change and 0.9869 fold change and 1.641 fold change and the “CAT (Fold change vs GAPDH)” value (MKN45 cells [5]; MKN45, mRNA vs Control = 1) was 0.5641 Fold change and 0.4321 Fold change and 0.7364 Fold change. For the same compound, the “SOD1 (Fold change vs GAPDH)” value (MKN45 cells [5]; MKN45, mRNA vs Control = 1) was 2.6 Fold change and 2.293 Fold change and 2.9486 Fold change, the “SOD2 (Fold change vs GAPDH)” value (MKN45 cells [5]; MKN45, mRNA vs Control = 1) was 1.053 Fold change and 0.9005 Fold change and 1.465 Fold change and the “CDKN1A, Fold change vs GAPDH” value (MKN45 cells [5]; [10]) was 3.253 fold change and 2.596 fold change and 4.076 fold change. For the same compound, the “IL-6, Fold change vs GAPDH” value (MKN45 cells [5]; [10]) was 0.4948 fold change and 2.435 fold change and 1.266 fold change, the “MMP-1, Fold change vs GAPDH” value (MKN45 cells [5]; [10]) was 7.796 fold change and 5.223 fold change and 11.6341 fold change and the “Fold change MAP2K3 vs GAPDH” value (MKN45 cells [5]; MKN45, Fig. 4B, replicate values) was 1.986 fold change and 1.696 fold change and 2.324 fold change. The “MKI67 Fold change vs GAPDH” value (PANC1 cells [6]; PANC1, Fig. S4C) was 1.955 fold change and 1.4208 fold change and 2.69 fold change, the “TNFRSF10D Fold change vs GAPDH” value (PANC1 cells [6]; PANC1, Fig. S4C) was 5.496 fold change and 3.924 fold change and 7.699 fold change and the “CAT (Fold change vs GAPDH)” value (PANC1 cells [6]; PANC1, mRNA vs Control = 1) was 1.529 Fold change and 1.325 Fold change and 1.766 Fold change. For the same compound, the “SOD1 (Fold change vs GAPDH)” value (PANC1 cells [6]; PANC1, mRNA vs Control = 1) was 1.806 Fold change and 1.686 Fold change and 1.679 Fold change, the “SOD2 (Fold change vs GAPDH)” value (PANC1 cells [6]; PANC1, mRNA vs Control = 1) was 0.6164 Fold change and 0.5428 Fold change and 0.7 Fold change and the “CDKN1A, Fold change vs GAPDH” value (PANC1 cells [6]; [11]) was 4.551 fold change and 3.906 fold change and 5.303 fold change. The “IL-6, Fold change vs GAPDH” value (PANC1 cells [6]; [11]) was 7.572 fold change and 6.429 fold change and 8.917 fold change, the “MMP-1, Fold change vs GAPDH” value (PANC1 cells [6]; [11]) was 12.6345 fold change and 9.391 fold change and 8.708 fold change and the “Fold change MAP2K3 vs GAPDH” value (PANC1 cells [6]; PANC1, Fig. 4B, replicate values) was 3.332 fold change and 2.993 fold change and 3.71 fold change. For the same compound, the GSH/GSSG (AGS cells [7]; AGS, 3, relative to Control = 1) was 0.9172 and 0.9228 and 0.9268, the GSH/GSSG (AGS cells [7]; AGS, 24, relative to Control = 1) was 0.5757 and 0.62 and 0.7864 and the GSH/GSSG (PANC1 cells [8]; PANC1, 3, relative to Control = 1) was 0.746 and 0.7881 and 0.8512. The GSH/GSSG (PANC1 cells [8]; PANC1, 24, relative to Control = 1) was 0.8241 and 0.8337 and 0.9592, the CFUs (PANC1 cells [9]; PANC1, 1 h pre-treatment at IC50, colonies after 10 days) was 176 and 164 and 136 and the CFUs (PANC1 cells [9]; PANC1, 3 h pre-treatment at IC50, colonies after 10 days) was 104 and 76 and 68.
